Test results: PubChem BioAssay (NCI)
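These data come from cells grown in 96-well plates and exposed to compound for 48 hours at five concentrations. TGI: concentration producing complete growth inhibition.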

Legend:
Assay in all cases: NCI anticancer screen, dose series, 48 h
[1] = tested on: SN12C renal
[2] = tested on: HL-60(TB) leukemia
[3] = tested on: SR leukemia
[4] = tested on: 786-0 renal
[5] = tested on: MALME-3M melanoma
[6] = tested on: K-562 leukemia
[7] = tested on: DLD-1 colon
[8] = tested on: SNB-75 CNS
[9] = tested on: RXF 393 renal
[10] = tested on: M14 melanoma
[11] = tested on: ACHN renal
[12] = tested on: IGROV1 ovarian
[13] = tested on: SW-620 colon
[14] = tested on: COLO 205 colon
[15] = tested on: SF-268 CNS
[16] = tested on: NCI-H522 lung
[17] = tested on: OVCAR-5 ovarian
[18] = tested on: A498 renal
[19] = tested on: CAKI-1 renal
[20] = tested on: NCI-H460 lung
[21] = tested on: OVCAR-3 ovarian
[22] = tested on: CCRF-CEM leukemia
[23] = tested on: DMS 273 small cell lung
[24] = tested on: SK-MEL-2 melanoma
[25] = tested on: SNB-78 CNS
[26] = tested on: SK-MEL-5 melanoma
[27] = tested on: HOP-18 NSCLC
[28] = tested on: KM12 colon
[29] = tested on: SF-295 CNS
[30] = tested on: NCI-H226 lung
[31] = tested on: OVCAR-8 ovarian
[32] = tested on: HCT-15 colon
[33] = tested on: LOX IMVI melanoma
[34] = tested on: SK-OV-3 ovarian
[35] = tested on: UACC-62 melanoma
[36] = tested on: SK-MEL-28 melanoma
[37] = tested on: U251 CNS
[38] = tested on: UO-31 renal
[39] = tested on: M19-MEL melanoma
[40] = tested on: HT29 colon
[41] = tested on: DMS 114 small cell lung
[42] = tested on: NCI-H23 lung
[43] = tested on: UACC-257 melanoma
[44] = tested on: TK-10 renal
[45] = tested on: HOP-92 NSCLC
[46] = tested on: HOP-62 NSCLC
[47] = tested on: KM20L2 colon
[48] = tested on: RPMI-8226 leukemia
[49] = tested on: HCT-116 colon
[50] = tested on: SF-539 CNS
[51] = tested on: LXFL 529 NSCLC
[52] = tested on: OVCAR-4 ovarian
[53] = tested on: MOLT-4 leukemia
[54] = tested on: A549 NSCLC
[55] = tested on: HCC-2998 colon
[56] = tested on: EKVX NSCLC
[57] = tested on: SNB-19 CNS

## O=Cc1c(O)ccc2ccc(O)c(-c3c(O)ccc4ccc(O)cc34)c12
[1]
  TGI: > 100 µM
[2]
  TGI: > 100 µM
[3]
  TGI: > 100 µM
[4]
  TGI: > 100 µM
[5]
  TGI: > 100 µM
[6]
  TGI: > 100 µM
[7]
  TGI: > 100 µM
[8]
  TGI: > 100 µM
[9]
  TGI: > 100 µM
[10]
  TGI: > 100 µM
[11]
  TGI: > 100 µM
[12]
  TGI: > 100 µM
[13]
  TGI: > 100 µM
[14]
  TGI: > 100 µM
[15]
  TGI: > 100 µM
[16]
  TGI: > 100 µM
[17]
  TGI: > 100 µM
[18]
  TGI: > 100 µM
[19]
  TGI: > 100 µM
[20]
  TGI: > 100 µM
[21]
  TGI: > 100 µM
[22]
  TGI: > 100 µM
[23]
  TGI: > 100 µM
[24]
  TGI: > 100 µM
[25]
  TGI: > 100 µM
[26]
  TGI: > 100 µM
[27]
  TGI: > 100 µM
[28]
  TGI: > 100 µM
[29]
  TGI: > 100 µM
[30]
  TGI: 95.1 µM
[31]
  TGI: > 100 µM
[32]
  TGI: > 100 µM
[33]
  TGI: > 100 µM
[34]
  TGI: > 100 µM
[35]
  TGI: > 100 µM
[36]
  TGI: > 100 µM
[37]
  TGI: > 100 µM
[38]
  TGI: > 100 µM
[39]
  TGI: > 100 µM
[40]
  TGI: > 100 µM
[41]
  TGI: > 100 µM
[42]
  TGI: > 100 µM
[43]
  TGI: > 100 µM
[44]
  TGI: > 100 µM
[45]
  TGI: > 100 µM
[46]
  TGI: > 100 µM
[47]
  TGI: > 100 µM
[48]
  TGI: > 100 µM
[49]
  TGI: > 100 µM
[50]
  TGI: > 100 µM
[51]
  TGI: > 100 µM
[52]
  TGI: > 100 µM
[53]
  TGI: > 100 µM
[54]
  TGI: > 100 µM

## O=C1c2ccccc2-c2ccccc2C(=O)C1(Br)Br
[1]
  TGI: 24.2 µM
[2]
  TGI: 6.47 µM
[55]
  TGI: 32.2 µM
[3]
  TGI: 4.95 µM
[4]
  TGI: 25.7 µM
[5]
  TGI: 13.6 µM
[6]
  TGI: 28.3 µM
[7]
  TGI: 20.3 µM
[8]
  TGI: 17.6 µM
[9]
  TGI: 10.9 µM
[10]
  TGI: 17.9 µM
[11]
  TGI: 24.6 µM
[12]
  TGI: 27.2 µM
[13]
  TGI: 13 µM
[14]
  TGI: 20.7 µM
[15]
  TGI: 28.5 µM
[16]
  TGI: 4.92 µM
[17]
  TGI: 32 µM
[18]
  TGI: 30.2 µM
[56]
  TGI: 27.7 µM
[19]
  TGI: 16.7 µM
[20]
  TGI: 35 µM
[21]
  TGI: 27.4 µM
[22]
  TGI: 9.26 µM
[23]
  TGI: 29.8 µM
[24]
  TGI: 23.6 µM
[25]
  TGI: 23.4 µM
[26]
  TGI: 31.1 µM
[27]
  TGI: 26.2 µM
[28]
  TGI: 31.5 µM
[29]
  TGI: 29.6 µM
[57]
  TGI: 31.6 µM
[30]
  TGI: 31.7 µM
[31]
  TGI: 23.9 µM
[32]
  TGI: 25 µM
[33]
  TGI: 22.2 µM
[34]
  TGI: 33.7 µM
[35]
  TGI: 19.6 µM
[36]
  TGI: 20.8 µM
[37]
  TGI: 29.4 µM
[38]
  TGI: 27.5 µM
[39]
  TGI: 22.3 µM
[40]
  TGI: 32.7 µM
[41]
  TGI: 28.5 µM
[42]
  TGI: 26.4 µM
[43]
  TGI: 22.8 µM
[44]
  TGI: 24.6 µM
[45]
  TGI: 9.59 µM
[46]
  TGI: 32.2 µM
[47]
  TGI: 31.8 µM
[48]
  TGI: 4.65 µM
[49]
  TGI: 21.9 µM
[50]
  TGI: 23.7 µM
[51]
  TGI: 21.1 µM
[52]
  TGI: 26.7 µM
[53]
  TGI: 7.53 µM
[54]
  TGI: 34.6 µM
